Assay results published in US8598078B2, “Condensed anthran I lami de derivatives as insecticides” (Syngenta Crop Protection, LLC, priority 2007, dated 2013).
Like-named read-outs stand apart in the source and are kept apart here.

Assays:
Type in all cases: in vivo
[1] = tested on: Spodoptera littoralis (Egyptian cotton leafworm); assay: Activity against Spodoptera littoralis (larvicide, feeding/residual contact activity, preventive), cotton leaf discs; conditions: foliar, 72 h, read-out: activity (mortality, repellent effect, feeding behaviour, growth regulation)
Description: Activity Against Spodoptera littoralis (Egyptian Cotton Leafworm)
(§1) (Larvicide, Feeding/Residual Contact Activity, Preventive)
Cotton leaf discs were placed on agar in a 24-well microtiter plate and sprayed with test solutions. After drying, the leaf discs were infested with 5 L1 larvae. The samples were checked for mortality, repellent effect, feeding behaviour, and growth regulation 3 days after treatment.

[2] = tested on: Heliothis virescens (tobacco budworm); assay: Activity against Heliothis virescens (ovo-larvicide, feeding/contact activity, curative), eggs on artificial diet; conditions: read-out: activity (egg mortality, larval mortality, growth regulation)
Experimental: Activity Against Heliothis virescens (Tobacco Budworm)
(Ovo-Larvicide, Feeding/Contact Activity, Curative)
Eggs (0-24 h old) were placed in 24-well microtiter plate on artificial diet and treated with test solutions by pipetting. After an incubation period of 4 days, samples were checked for egg mortality, larval mortality, and growth regulation.

[3] = tested on: Plutella xylostella (diamond back moth); assay: Plutella xylostella (larvicide, feeding/residual contact activity, preventive), artificial diet MTP; conditions: 120 h, read-out: activity (larval mortality, antifeedant, growth regulation)
Experimental: Plutella xylostella (Diamond Back Moth)
as §1
24-well microtiter plate (MTP) with artificial diet was treated with test solutions by pipetting. After drying, the MTP's were infested with larvae (L2) (10-15 per well). After an incubation period of 5 days, samples were checked for larval mortality, antifeedant and growth regulation.

[4] = tested on: Myzus persicae (green peach aphid); assay: Activity against Myzus persicae (mixed population, feeding/residual contact activity, preventive), sunflower leaf discs; conditions: foliar, 144 h, read-out: activity (mortality and special effects)
Experimental: (§2) Activity Against Myzus persicae (Green Peach Aphid)
(§3) (Mixed Population, Feeding/Residual Contact Activity, Preventive)
(§4) Sunflower leaf discs were placed on agar in a 24-well microtiter plate and sprayed with test solutions. After drying, the leaf discs were infested with an aphid population of mixed ages. After an incubation period of 6 days, samples were checked for mortality and special effects (e.g. phytotoxicity).

[5] = tested on: Myzus persicae (green peach aphid); assay: Activity against Myzus persicae (mixed population, systemic/feeding activity, curative), pea seedling roots in test solution; conditions: 144 h, read-out: activity (mortality and special effects on the plant)
Description: as §2
(Mixed Population, Systemic/Feeding Activity, Curative)
Roots of pea seedlings, infested with an aphid population of mixed ages, were placed directly in the test solutions. 6 days after introduction, samples were checked for mortality and special effects on the plant.

[6] = tested on: Thrips tabaci (onion thrips); assay: Activity against Thrips tabaci (mixed population, feeding/residual contact activity, preventive), sunflower leaf discs; conditions: foliar, 144 h, read-out: activity (mortality and special effects)
Experimental: Activity Against Thrips tabaci (Onion Thrips)
as §3
as §4, with “a thrips” for “an aphid”

[7] = tested on: Diabrotica balteata (corn root worm); assay: Diabrotica balteata (larvicide, feeding/residual contact activity, preventive), artificial diet MTP; conditions: 120 h, read-out: activity (larval mortality, antifeedant, growth regulation)
Experimental: Diabrotica balteata (Corn Root Worm)
as §1
24-well microtiter plate (MTP) with artificial diet was treated with test solutions by pipetting. After drying, the MTP's were infested with larvae (L2) (6-10 per well). After an incubation period of 5 days, samples were checked for larval mortality, antifeedant and growth regulation.

[8] = 400 ppm, L1 larvae on sprayed cotton leaf discs, 3 days after treatment
[9] = 400 ppm, eggs 0-24 h old on artificial diet, 4 days incubation
[10] = 400 ppm, L2 larvae on treated artificial diet, 5 days incubation
[11] = 400 ppm, mixed-age aphids on sprayed sunflower leaf discs, 6 days incubation
[12] = 400 ppm, systemic, roots of infested pea seedlings in test solution, 6 days

Measured: mortality at 400 ppm

COCn1cc2cc(C)c(NC(=O)c3cc(OC)nn3-c3ncccc3Cl)c(C(=O)NC(C)C)c2n1 [P.3]
> 80%: [1] | [2] | [3] | [4] | [5] | [6]

COCn1cc2cc(Cl)c(NC(=O)c3cc(C(F)(F)F)nn3-c3ncccc3Cl)c(C(=O)NC(C)C)c2n1 [P.6]
> 80%: [1] | [2] | [3] | [7] | [4] | [5] | [6]

C#CCn1cc2cc(C)c(NC(=O)c3cc(OC)nn3-c3ncccc3Cl)c(C(=O)NC(C)C)c2n1 [P.7]
> 80%: [1] | [2] | [3] | [7] | [4] | [5] | [6]

C=CCn1cc2cc(C)c(NC(=O)c3cc(OC)nn3-c3ncccc3Cl)c(C(=O)NC(C)C)c2n1 [P.8]
> 80%: [1] | [2] | [3] | [7] | [4] | [5] | [6]

COc1cc(C(=O)Nc2c(C)cc3cn(CC(F)(F)F)nc3c2C(=O)NC(C)C)n(-c2ncccc2Cl)n1 [P.10]
> 80%: [1] | [2] | [3] | [4] | [6]

COC(=O)N(C)Cn1cc2cc(C)c(NC(=O)c3cc(OC)nn3-c3ncccc3Cl)c(C(=O)NC(C)C)c2n1 [P.11]
> 80%: [1] | [2] | [3] | [7] | [4] | [5] | [6]

COCCOCn1ncc2cc(C)c(NC(=O)c3cc(OC)nn3-c3ncccc3Cl)c(C(=O)NC(C)C)c21 [P.13, 6-{[2-(3-chloro-pyridin-2-yl)-5-methoxy-2H-pyrazole-3-carbonyl]-amino}-1-(2-methoxy-ethoxymethyl)-5-methyl-1H-indazole-7-carboxylic acid isopropylamide]
> 80%: [1] | [2] | [3] | [4] | [5] | [6]

COc1cc(C(=O)Nc2c(C)cc3cnn(CC#N)c3c2C(=O)NC(C)C)n(-c2ncccc2Cl)n1 [P.14]
> 80%: [1] | [2] | [3] | [4] | [5] | [6]

COC(=O)N(C)Cn1ncc2cc(C)c(NC(=O)c3cc(OC)nn3-c3ncccc3Cl)c(C(=O)NC(C)C)c21 [P.15]
> 80%: [1] | [2] | [3] | [7] | [4] | [5] | [6]

CCS(=O)(=O)N(C)Cn1cc2cc(C)c(NC(=O)c3cc(OC)nn3-c3ncccc3Cl)c(C(=O)NC(C)C)c2n1 [P.17]
> 80%: [1] | [2] | [3] | [4] | [5]

CCS(=O)(=O)N(C)Cn1ncc2cc(C)c(NC(=O)c3cc(OC)nn3-c3ncccc3Cl)c(C(=O)NC(C)C)c21 [P.18]
> 80%: [1] | [2] | [3] | [4] | [5]

CCCCCCOCCOC(=O)n1cc2cc(C)c(NC(=O)c3cc(OC)nn3-c3ncccc3Cl)c(C(=O)NC(C)C)c2n1 [P.24]
> 80%: [1] | [2] | [3] | [7] | [4] | [5]

CCCCCCCC/C=C\CCCCCCCC(=O)n1cc2cc(C)c(NC(=O)c3cc(OC)nn3-c3ncccc3Cl)c(C(=O)NC(C)C)c2n1 [P.25]
> 80%: [1]; [8] | [2]; [9] | [3]; [10] | [4]; [11] | [6]; 400 ppm, mixed-age thrips on sprayed sunflower leaf discs, 6 days incubation

COc1cc(C(=O)Nc2c(C)cc3cn(C(=O)CC(C)(C)C)nc3c2C(=O)NC(C)C)n(-c2ncccc2Cl)n1 [P.27]
> 80%: [1] | [2] | [3] | [7] | [4] | [5] | [6]

CCCCCCCCCCOCCOC(=O)n1cc2cc(C)c(NC(=O)c3cc(OC)nn3-c3ncccc3Cl)c(C(=O)NC(C)(C)C)c2n1 [P.28]
> 80%: [1]; [8] | [2]; [9] | [3]; [10] | [4]; [11] | [5]; [12]

CCCCCCCCCCCCCCCCCCOCCOC(=O)n1cc2cc(C)c(NC(=O)c3cc(OC)nn3-c3ncccc3Cl)c(C(=O)NC(C)C)c2n1 [P.30]
> 80%: [1]; [8] | [2]; [9] | [3]; [10] | [7]; [10] | [4]; [11] | [5]; [12]

COc1cc(C(=O)Nc2c(C)cc3cn(C(=O)C4(C)CCCCC4)nc3c2C(=O)NC(C)C)n(-c2ncccc2Cl)n1 [P.32]
> 80%: [1] | [2] | [3] | [7] | [4] | [5] | [6]

COc1cc(C(=O)Nc2c(C)cc3cn(Cc4ccccc4)nc3c2C(=O)NC(C)C)n(-c2ncccc2Cl)n1 [P.33]
> 80%: [1] | [2] | [3] | [7] | [4] | [6]

COc1ccc(Cn2cc3cc(C)c(NC(=O)c4cc(OC)nn4-c4ncccc4Cl)c(C(=O)NC(C)C)c3n2)cc1 [P.34, 6-{[2-(3-chloro-pyridin-2-yl)-5-methoxy-2H-pyrazole-3-carbonyl]-amino}-2-(4-methoxy-benzyl)-5-methyl-2H-indazole-7-carboxylic acid isopropyl amide]
> 80%: [1] | [2] | [3] | [4] | [5] | [6]

CCCCN(CCCC)C(=O)n1cc2cc(C)c(NC(=O)c3cc(OC)nn3-c3ncccc3Cl)c(C(=O)NC(C)C)c2n1 [P.35]
> 80%: [2] | [3] | [6]

COc1cc(C(=O)Nc2c(C)cc3cn(C(=O)N(C)c4ccccc4)nc3c2C(=O)NC(C)C)n(-c2ncccc2Cl)n1 [P.36]
> 80%: [2] | [3] | [5] | [6]
